According to patent publication US20190119649A1, “METHODS FOR GENERATING AUGMENTED STEM CELL-DERIVED BETA CELLS AND USES THEREOF” (President and Fellows of Harvard College, priority 2014, published 2019):

Assays:
SC-β cells [1] = settings: R428 together with antioxidant N-acetylcysteine; FIG. 1A
Description: FIG. 2C is a schematic depicting an overview of an exemplary method for generating augmented SC-β cells in accordance with the present invention.
In accordance with aspects of the present invention, the period of time comprises between 7 days and 21 days. […] In accordance with aspects of the present invention, the period of time comprises 3 days, 4 days, 5 days, 6 days, 7 days, 8 days, 9 days, 10 days, 11 days, 12 days, 13 days, 14 days, 15 days, 16 days, 17 days, 18 days, 19 days, 20 days, 21 days, 22 days, 23 days, 24 days, 25 days, 26 days, 27 days, 28 days, 29 days, or 30 days or longer.

SC-β cells [2] = experiment: Glucose stimulated insulin secretion stimulation index of SC-β cells; format: cell-based, human; settings: R428 together with antioxidant N-acetylcysteine; FIG. 1B and 1C
Protocol: Stimulation index=[insulin@20 mM glucose]/[insulin@2 mM glucose]. Relative Stim Index=Stim Index/Stim Index of Control.

What does the source list for `Nc1nc(Nc2ccc3c(c2)CC[C@@H](N2CCCC2)CC3)nn1-c1cc2c(nn1)-c1ccccc1CCC2` [Compound R428]?
MAFA gene expression relative to SC-β cells generated without AXL inhibitor and antioxidant (SC-β cells [1]): increased MAFA gene expression; Stimulation index ([insulin@20 mM glucose]/[insulin@2 mM glucose]) relative to SC-β cells generated without AXL inhibitor (SC-β cells [2]): greater stimulation index
